According to ChEMBL document CHEMBL3627610 (Eur J Med Chem, 2015):
The source made the active and inactive calls. No cut-off for these calls is given here.

Tests used:
Xenopus laevis [1] = species: Xenopus laevis; assay: Antagonist activity at melatonin receptor in Xenopus laevis melanophores assessed as effect on pigment aggregation at 10^-4 M after 60 mins by microtiter plate reader assay
Xenopus laevis [2] = species: Xenopus laevis; assay: Agonist activity at melatonin receptor in Xenopus laevis melanophores assessed as effect on pigment aggregation at 10^-5 M after 60 mins by microtiter plate reader assay
[3] = Agonist activity at melatonin receptor in Xenopus laevis melanophores assessed as effect on pigment aggregation after 60 mins by microtiter plate reader assay
[4] = target: T1, Melatonin receptor type 1B (Homo sapiens, UniProt P49286); assay: Displacement of 2-[125I]iodomelatonin from human recombinant MT2 expressed in CHO cell membranes incubated for 120 mins by liquid scintillation spectrometry
T1 sequence (P49286 whole entry): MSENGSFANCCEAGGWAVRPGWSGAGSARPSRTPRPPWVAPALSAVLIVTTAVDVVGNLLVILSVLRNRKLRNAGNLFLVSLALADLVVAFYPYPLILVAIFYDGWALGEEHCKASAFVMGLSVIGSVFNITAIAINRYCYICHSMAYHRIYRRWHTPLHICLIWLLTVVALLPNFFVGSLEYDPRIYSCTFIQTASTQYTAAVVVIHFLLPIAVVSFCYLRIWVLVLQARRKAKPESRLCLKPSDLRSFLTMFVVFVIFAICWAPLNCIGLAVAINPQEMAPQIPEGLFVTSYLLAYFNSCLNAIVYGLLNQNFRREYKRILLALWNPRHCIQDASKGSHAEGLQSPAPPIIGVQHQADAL

Xenopus laevis [5] = species: Xenopus laevis; assay: Agonist activity at melatonin receptor in Xenopus laevis melanophores assessed as effect on pigment aggregation at 10^-12 to 10^-5 M after 60 mins by microtiter plate reader assay
[6] = target: Melatonin receptor type 1A (Homo sapiens, UniProt P48039); assay: Displacement of 2-[125I]iodomelatonin from human recombinant MT1 expressed in CHO cell membranes incubated for 60 mins by liquid scintillation spectrometry
Melatonin receptor type 1A, sequence (P48039 whole entry): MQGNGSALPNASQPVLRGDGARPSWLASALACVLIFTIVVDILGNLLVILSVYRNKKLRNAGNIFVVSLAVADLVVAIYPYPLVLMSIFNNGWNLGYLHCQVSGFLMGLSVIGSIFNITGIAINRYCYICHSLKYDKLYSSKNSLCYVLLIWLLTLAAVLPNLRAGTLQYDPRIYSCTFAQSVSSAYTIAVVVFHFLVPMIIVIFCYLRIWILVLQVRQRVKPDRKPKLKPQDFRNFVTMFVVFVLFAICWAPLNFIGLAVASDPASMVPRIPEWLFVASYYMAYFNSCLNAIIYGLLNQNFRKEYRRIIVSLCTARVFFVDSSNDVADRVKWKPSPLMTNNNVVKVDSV

inhibition (Xenopus laevis [1])	Activity (Xenopus laevis [2])	EC50 [3]	Ki [4]	Emax (Xenopus laevis [5])	Ki [6]	SMILES
Active	inactive					COc1ccc2c(CCCNC(C)=O)cc(=O)oc2c1
Active		118 nM	3.4 nM	89%	13 nM	COc1ccc2oc(=O)cc(CCNC(C)=O)c2c1
		0.074 nM		100%		COc1ccc2[nH]cc(CCNC(C)=O)c2c1 [MELATONIN]
